Data from patent US7700347B2, “Methods and apparatuses for conducting assays in animals” (The Forsyth Institute, priority 2005, dated 2010).

System: planaria
Assay: planaria movement (worm mobility) after drug treatment, automated tracking
Assay type: in vivo, Dugesia tigrinia
Settings: 24 hours of drug treatment, movement observed for three hours, compared to control carrier (water+DMSO), statistically significant
Method: The following methods were used for Examples 5-8. The species of planaria used in these studies was Dugesia tigrinia, obtained from Ward's Natural Science. The planaria colonies were stored in natural spring water at 22.5° C., and kept on a 9 hour light/15 hour dark cycle. The colonies were fed once per week with organic beef liver. Their water was changed several hours after feeding and 3 days following each feeding. Worms were not fed (e.g., they were starved) the week they were used in an experiment because starved worms were less likely to fission during the experiment.
For the duration of an experiment, individual worms were placed in a reaction well and a plurality of reaction wells were arrayed, as shown in FIG. 10. The worms were not fed during the experiment. Each reaction well included electrodes made of a 90%/10% platinum/iridium alloy for delivering current. […]
FIG. 16 summarizes results depicting the effects of two agents on planaria behavior. Specifically, we assessed the effects of two psychiatric drugs that modulate serotonergic signaling, p-chlorophenylalanine (PCPA) and reserpine, on worm mobility.
Briefly, planaria were cultured in the presence of control carrier (water+DMSO), 625 micrograms/mL of PCPA, or 21 micrograms/mL of reserpine. […] The speed, position, and distance traveled of individual worms were monitored following drug treatment and compared to controls. […]

SMILES | effect on planaria movement (worm movement, average speed) (625 micrograms/mL in culture) | effect on planaria movement (worm movement, average speed) (21 micrograms/mL in culture)
N[C@@H](Cc1ccc(Cl)cc1)C(=O)O (racemic) [PCPA, p-chlorophenylalanine] | increased planaria movement | –
COC(=O)[C@H]1[C@H]2C[C@@H]3c4[nH]c5cc(OC)ccc5c4CCN3C[C@H]2C[C@@H](OC(=O)c2cc(OC)c(OC)c(OC)c2)[C@@H]1OC [reserpine] | – | decreased planaria movement
